The values below come from patent publication US11512097B2, “Heterocyclic compounds as Delta-5 desaturase inhibitors and methods of use” (Amgen Inc., priority 2019, dated 2022).

T1 sequence (O60427 whole entry, species assumed): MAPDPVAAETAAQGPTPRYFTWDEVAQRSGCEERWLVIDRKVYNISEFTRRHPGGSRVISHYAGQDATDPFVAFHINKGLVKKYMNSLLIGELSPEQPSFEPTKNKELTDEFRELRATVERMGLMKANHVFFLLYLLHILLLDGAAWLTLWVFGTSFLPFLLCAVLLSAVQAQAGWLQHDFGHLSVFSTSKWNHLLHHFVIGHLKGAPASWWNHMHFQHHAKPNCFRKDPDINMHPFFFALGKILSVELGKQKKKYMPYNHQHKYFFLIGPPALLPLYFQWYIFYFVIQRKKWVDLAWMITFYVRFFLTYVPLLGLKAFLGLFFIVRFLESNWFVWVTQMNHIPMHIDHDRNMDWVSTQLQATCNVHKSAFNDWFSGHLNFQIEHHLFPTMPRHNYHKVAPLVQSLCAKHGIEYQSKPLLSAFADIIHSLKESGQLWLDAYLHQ

The test addresses T1, Delta-5-Desaturase (D5D), membrane preparations of D5D-overexpressing HEK293 6E cells (Homo sapiens, UniProt O60427).
T1 construct: expressed in transfected cells; host or cells: HEK293 6E cells (membrane preparation)
Briefly: In vitro measurement of Delta-5-Desaturase inhibitory activity using DGLA-CoA and Arachidonyl-CoA mass spectrometric assays. Particulars: D5D membrane 10 μg/mL, one-hour incubation, average of at least two independent runs. The test is classed as biochemical. In a few lines:
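Substrate mix (0.01 mM DGLA with NADH, ATP, coenzyme A) was incubated 1 h at room temperature with HEK293 6E D5D membranes at 10 μg/mL final, pH 7.5. Negative-mode SPE-MS/MS monitored DGLA-CoA (m/z 526.6) and arachidonyl-CoA (m/z 525.6). Inhibition normalised to DMSO and no-enzyme wells gave IC50s, mean of ≥2 runs.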
`Cc1cn2c(=O)c(-c3cnn(CC(F)(F)C(F)(F)F)c3)c(C(F)(F)F)nc2n1CC1CC1` [Example 62, 1-(cyclopropylmethyl)-2-methyl-6-[1-(2,2,3,3,3-pentafluoropropyl)-1H-pyrazol-4-yl]-7-(trifluoromethyl)-1H,5H-imidazo[1,2-a]pyrimidin-5-one] displayed an IC50 of 2.9 nM.

The compound `Cc1cccc(-n2c(C)cn3c(=O)c(-c4cnn(CC(F)(F)C(F)(F)F)c4)c(C(F)(F)F)nc23)n1` [Example 96, 2-methyl-1-(6-methylpyridin-2-yl)-6-[1-(2,2,3,3,3-pentafluoropropyl)-1H-pyrazol-4-yl]-7-(trifluoromethyl)-1H,5H-imidazo[1,2-a]pyrimidin-5-one] yielded an IC50 of 19.4 nM.

`Cc1cn2c(=O)c(-c3cnn(CCC(F)(F)F)c3)c(C(F)(F)F)nc2n1CC#N` [Example 87, 2-[2-methyl-5-oxo-7-(trifluoromethyl)-6-[1-(3,3,3-trifluoropropyl)-1H-pyrazol-4-yl]-1H,5H-imidazo[1,2-a]pyrimidin-1-yl]acetonitrile] gave an IC50 of 3.7 nM.

Regarding `Cc1cn2c(=O)c(-c3ccc(OCC(F)(F)F)cc3)c(C(F)(F)F)nc2[nH]1` [Example 75, 2-methyl-6-[4-(2,2,2-trifluoroethoxy)phenyl]-7-(trifluoromethyl)-1H,5H-imidazo[1,2-a]pyrimidin-5-one], inhibition was half-maximal at 6.3 nM (IC50).

The compound `Cc1cn2c(=O)c(-c3cnn(CC(F)(F)C(F)(F)F)c3)c(C(F)(F)F)nc2n1-c1ccccc1` [Example 100, 2-methyl-6-[1-(2,2,3,3,3-pentafluoropropyl)-1H-pyrazol-4-yl]-1-phenyl-7-(trifluoromethyl)-1H,5H-imidazo[1,2-a]pyrimidin-5-one] registered an IC50 of 4120 nM.

With `Cc1cn2c(=O)c(-c3cnn(CC(F)(F)C(F)(F)F)c3)c(C(F)(F)F)nc2n1-c1cccnc1` [Example 98, 2-methyl-6-[1-(2,2,3,3,3-pentafluoropropyl)-1H-pyrazol-4-yl]-1-(pyridin-3-yl)-7-(trifluoromethyl)-1H,5H-imidazo[1,2-a]pyrimidin-5-one], half-maximal inhibition (IC50) was put at 2400 nM.

`Cc1cn2c(=O)c(-c3cnn(C[C@H]4CC4(F)F)c3)c(C(F)(F)F)nc2[nH]1` (single isomer, unassigned) [Example 107] showed an IC50 of 12.5 nM.

Regarding `Cc1cn2c(=O)c(-c3cnn(CC(F)(F)C(F)(F)F)c3)c(C(F)(F)F)nc2n1-c1cnccn1` [Example 95, 2-methyl-6-[1-(2,2,3,3,3-pentafluoropropyl)-1H-pyrazol-4-yl]-1-(pyrazin-2-yl)-7-(trifluoromethyl)-1H,5H-imidazo[1,2-a]pyrimidin-5-one], it took 247 nM to reach half-maximal inhibition (IC50).

For the compound `Cc1cn2c(=O)c(-c3cnn(CC(F)(F)C(F)(F)F)c3)c(C(F)(F)F)nc2s1` [Example 4, 2-methyl-6-[1-(2,2,3,3,3-pentafluoropropyl)-1H-pyrazol-4-yl]-7-(trifluoromethyl)-5H-[1,3]thiazolo[3,2-a]pyrimidin-5-one], half-maximal inhibition (IC50) required 17.8 nM.

Regarding `Cc1nn2c(=O)c(-c3cnn(CC(F)(F)C(F)(F)F)c3)c(C(F)(F)F)nc2n1C` [Example 13, 2,3-dimethyl-6-[1-(2,2,3,3,3-pentafluoropropyl)-1H-pyrazol-4-yl]-5-(trifluoromethyl)-3H,7H-[1,2,4]triazolo[1,5-a]pyrimidin-7-one], half-maximal inhibition (IC50) was put at 249 nM.

As for `Cc1cn2c(=O)c(-c3cnn(CC(F)(F)C(F)(F)F)c3)c(C(F)(F)F)nc2n1-c1ccncc1` [Example 102, 2-methyl-6-[1-(2,2,3,3,3-pentafluoropropyl)-1H-pyrazol-4-yl]-1-(pyridin-4-yl)-7-(trifluoromethyl)-1H,5H-imidazo[1,2-a]pyrimidin-5-one], the IC50 turned out to be 8400 nM.

For `Cc1cn2c(=O)c(-c3cnn(CC(F)(F)C(F)(F)F)c3)c(C(F)(F)F)nc2n1CCO` [Example 79, 1-(2-hydroxyethyl)-2-methyl-6-[1-(2,2,3,3,3-pentafluoropropyl)-1H-pyrazol-4-yl]-7-(trifluoromethyl)-1H,5H-imidazo[1,2-a]pyrimidin-5-one], the IC50 is 11.7 nM.

As for `[2H]C([2H])([2H])n1c(C)cn2c(=O)c(-c3cnn(CC(F)(F)C(F)(F)F)c3)c(C(F)(F)F)nc12` [Example 77, 1-(2H3)methyl-2-methyl-6-[1-(2,2,3,3,3-pentafluoropropyl)-1H-pyrazol-4-yl]-7-(trifluoromethyl)-1H,5H-imidazo[1,2-a]pyrimidin-5-one], the IC50 was 24 nM.

`Cc1cn2c(=O)c(-c3cnn(CC(F)(F)C(F)(F)F)c3)c(C(F)(F)F)nc2[nH]1` [Example 73, 2-methyl-6-[1-(2,2,3,3,3-pentafluoropropyl)-1H-pyrazol-4-yl]-7-(trifluoromethyl)-1H,5H-imidazo[1,2-a]pyrimidin-5-one] showed an IC50 of 35.7 nM. The IC50 values of the last two compounds are within 1.5-fold of each other.

In the case of `Cc1cn2c(=O)c(-c3cnn(C[C@@H]4CC4(F)F)c3)c(C(F)(F)F)nc2n1C` (single isomer, unassigned) [Example 110], the IC50 was found to be 24.1 nM.

In turn, `Cc1cn2c(=O)c(-c3cnn(CC(F)(F)C(F)(F)F)c3)c(C(F)(F)F)nc2n1CCN(C)C` [Example 84, 1-[2-(dimethylamino)ethyl]-2-methyl-6-[1-(2,2,3,3,3-pentafluoropropyl)-1H-pyrazol-4-yl]-7-(trifluoromethyl)-1H,5H-imidazo[1,2-a]pyrimidin-5-one] displayed an IC50 of 193 nM. Against the preceding compound, the IC50 is about 8-fold higher.

As for `Cc1nn2c(=O)c(-c3cnn(CC4CC4(F)F)c3)c(C(F)(F)F)nc2s1` (centres unmarked) [Example 23, 6-{1-[(2,2-difluorocyclopropyl)methyl]-1H-pyrazol-4-yl}-2-methyl-7-(trifluoromethyl)-5H-[1,3,4]thiadiazolo[3,2-a]pyrimidin-5-one], the IC50 was 158 nM.

Compound `Cc1cn2c(=O)c(-c3ccn(CC(F)(F)C(F)(F)F)n3)c(C(F)(F)F)nc2n1C` [Example 70, 1,2-dimethyl-6-[1-(2,2,3,3,3-pentafluoropropyl)-1H-pyrazol-3-yl]-7-(trifluoromethyl)-1H,5H-imidazo[1,2-a]pyrimidin-5-one] gave an IC50 of 5150 nM.

On to `O=c1c(-c2cnn(CC(F)(F)C(F)(F)F)c2)c(C(F)(F)F)nc2sc(C3CC3)nn12` [Example 11, 2-cyclopropyl-6-[1-(2,2,3,3,3-pentafluoropropyl)-1H-pyrazol-4-yl]-7-(trifluoromethyl)-5H-[1,3,4]thiadiazolo[3,2-a]pyrimidin-5-one], for which inhibition was half-maximal at 133 nM (IC50).

As to `Cc1nn2c(=O)c(-c3ccc(OCC(F)(F)F)cc3)c(C(F)(F)F)nc2s1` [Example 40, 2-methyl-6-[4-(2,2,2-trifluoroethoxy)phenyl]-7-(trifluoromethyl)-5H-[1,3,4]thiadiazolo[3,2-a]pyrimidin-5-one], 224 nM corresponded to half-maximal inhibition (IC50). This IC50 is about 1.7-fold higher than that of the compound before.

Compound `Cc1cn2c(=O)c(-c3cnn(CCC(F)(F)F)c3)c(C(F)(F)F)nc2n1C[C@@H]1CC1(F)F` (single isomer, unassigned) [Example 115] came in with an IC50 of 39 nM.

The compound `Cc1cn2c(=O)c(-c3cnn(C[C@H]4CC4(F)F)c3)c(C(F)(F)F)nc2n1C` (single isomer, unassigned) [Example 109] had an IC50 of 28.6 nM.

Compound `O=c1c(-c2cnn(CC(F)(F)C(F)(F)F)c2)c(C(F)(F)F)nc2sc(CF)nn12` [Example 104, 2-(fluoromethyl)-6-[1-(2,2,3,3,3-pentafluoropropyl)-1H-pyrazol-4-yl]-7-(trifluoromethyl)-5H-[1,3,4]thiadiazolo[3,2-a]pyrimidin-5-one] yielded an IC50 of 100 nM.

One may read the IC50 as the concentration that gives 50% inhibition. A lower IC50 goes with greater potency.
